Experimental findings from patent publication US8163793B2, “Proline derivatives” (Hoffman-La Roche Inc., priority 2009, dated 2012) are described below.

Assay [1] deals with Cathepsin S (UniProt P25774). Nature of the assay: Cathepsin enzyme inhibition assay (fluorogenic peptide substrate Z-Val-Val-Arg-AMC), Cathepsin S. It is filed as biochemical, human and mouse. The following applies: enzyme 1 nM, substrate 20 μM, pH 6.5; read-out: CatS IC50. The method in brief: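 Human or mouse cathepsin S (1 nM) was run in 100 mM potassium phosphate pH 6.5 with 5 mM EDTA, 0.001% Triton X-100 and 5 mM DTT. The rise in AMC fluorescence from cleavage was measured, and IC50 values were calculated by standard methods and expressed in μM.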

In assay [2] the target is Cat L (UniProt P07711). As to the kind of experiment: Cathepsin enzyme inhibition assay (fluorogenic peptide substrate Z-Val-Val-Arg-AMC), Cathepsin L. It is filed as biochemical, human and mouse. The following applies: enzyme 1 nM, substrate 20 μM, pH 6.5; read-out: CatL IC50. In short, it runs like this: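 Cathepsin L at 1 nM was mixed with compound, then started with 20 μM Z-Val-Val-Arg-AMC in pH 6.5 potassium phosphate with EDTA, Triton X-100 and 5 mM DTT. AMC fluorescence (ex 360/em 465 nm) was followed over 20 min. IC50 is given in μM.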

The term IC50 denotes the point on the concentration scale where inhibition reaches its midpoint. For `Cn1cc(-c2ccc(C3(C(=O)N4C[C@H](S(=O)(=O)c5ccc(OCC(F)(F)F)cc5Cl)C[C@H]4C(=O)NC4(C#N)CC4)CC3)cc2)cn1` [Example 288, (2S,4R)-4-[2-Chloro-4-(2,2,2-trifluoro-ethoxy)-benzenesulfonyl]-1-{1-[4-(1-methyl-1H-pyrazol-4-yl)-phenyl]-cyclopropanecarbonyl}-pyrrolidine-2-carboxylic acid (1-cyano-cyclopropyl)-amide], the figures for the concentration for half-maximal inhibition (IC50) in assay [1] and in assay [2] were 0.08 nM and 3480 nM, respectively.
For `CN1CCN(c2ccc(S(=O)(=O)[C@@H]3C[C@@H](C(=O)NC4(C#N)CC4)N(C(=O)C4(C(F)(F)F)CC4)C3)c(Cl)c2)CC1` [Example 290, (2S,4R)-4-[2-Chloro-4-(4-methyl-piperazin-1-yl)-benzenesulfonyl]-1-(1-trifluoromethyl-cyclopropanecarbonyl)-pyrrolidine-2-carboxylic acid (1-cyano-cyclopropyl)-amide], in that order: 0.13 nM and 1600 nM.
On the same counts, the results for `CN(C)c1ccc(S(=O)(=O)[C@@H]2C[C@@H](C(=O)NC3(C#N)CC3)N(C(=O)C3(C(F)(F)F)CC3)C2)c(Cl)c1` [Example 292, (2S,4R)-4-(2-Chloro-4-dimethylamino-benzenesulfonyl)-1-(1-trifluoromethyl-cyclopropanecarbonyl)-pyrrolidine-2-carboxylic acid (1-cyano-cyclopropyl)-amide] are 0.157 nM and 4130 nM.
On the same counts, the results for `CC(C)N1CCN(c2ccc(S(=O)(=O)[C@@H]3C[C@@H](C(=O)NC4(C#N)CC4)N(C(=O)C4(C(F)(F)F)CC4)C3)c(Cl)c2)CC1` [Example 293, (2S,4R)-4-[2-Chloro-4-(4-isopropyl-piperazin-1-yl)-benzenesulfonyl]-1-(1-trifluoromethyl-cyclopropanecarbonyl)-pyrrolidine-2-carboxylic acid (1-cyano-cyclopropyl)-amide] are 0.18 nM and 1400 nM.
`CC1(C(=O)N2C[C@H](S(=O)(=O)c3ccc(OCC(F)(F)F)cc3Cl)C[C@H]2C(=O)NC2(C#N)CC2)COC1` [Example 294, (2S,4R)-4-[2-Chloro-4-(2,2,2-trifluoro-ethoxy)-benzenesulfonyl]-1-(3-methyl-oxetane-3-carbonyl)-pyrrolidine-2-carboxylic acid (1-cyano-cyclopropyl)-amide]: the half-inhibitory concentration (IC50) turned out to be 0.353 nM in assay [1] and 7840 nM in assay [2].
For `N#CC1(NC(=O)[C@@H]2C[C@@H](S(=O)(=O)c3ccc(OCC(F)(F)F)cc3Cl)CN2C(=O)C2(c3ccc(F)cc3)CC2)CC1` [Example 295, (2S,4R)-4-[2-Chloro-4-(2,2,2-trifluoro-ethoxy)-benzenesulfonyl]-1-[1-(4-fluoro-phenyl)-cyclopropanecarbonyl]-pyrrolidine-2-carboxylic acid (1-cyano-cyclopropyl)-amide], the IC50 in assay [1] is 0.03 nM; in assay [2], 925 nM.
For `CC(C)(C)N1CCN(c2ccc(S(=O)(=O)[C@@H]3C[C@@H](C(=O)NC4(C#N)CC4)N(C(=O)C4(C(F)(F)F)CC4)C3)c(Cl)c2)CC1` [Example 296, (2S,4R)-4-[4-(4-tert-Butyl-piperazin-1-yl)-2-chloro-benzenesulfonyl]-1-(1-trifluoromethyl-cyclopropanecarbonyl)-pyrrolidine-2-carboxylic acid (1-cyano-cyclopropyl)-amide], in that order: 0.123 nM and 1180 nM.
As to `COCCN1CCN(c2ccc(S(=O)(=O)[C@@H]3C[C@@H](C(=O)NC4(C#N)CC4)N(C(=O)C4(C(F)(F)F)CC4)C3)c(Cl)c2)CC1` [Example 297, (2S,4R)-4-{2-Chloro-4-[4-(2-methoxy-ethyl)-piperazin-1-yl]-benzenesulfonyl}-1-(1-trifluoromethyl-cyclopropanecarbonyl)-pyrrolidine-2-carboxylic acid (1-cyano-cyclopropyl)-amide], the half-inhibitory concentration (IC50) is 0.08 nM in assay [1] and 1340 nM in assay [2].
On the same counts, the results for `N#CC1(NC(=O)[C@@H]2C[C@@H](S(=O)(=O)c3ccc(N4CCN(C5CC5)CC4)cc3Cl)CN2C(=O)C2(C(F)(F)F)CC2)CC1` [Example 298, (2S,4R)-4-[2-Chloro-4-(4-cyclopropyl-piperazin-1-yl)-benzenesulfonyl]-1-(1-trifluoromethyl-cyclopropanecarbonyl)-pyrrolidine-2-carboxylic acid (1-cyano-cyclopropyl)-amide] are 0.22 nM and 1580 nM.
On to `N#CC1(NC(=O)[C@@H]2C[C@@H](S(=O)(=O)c3ccc(N4CCN5CCC[C@H]5C4)cc3Cl)CN2C(=O)C2(C(F)(F)F)CC2)CC1` [Example 299, (2S,4R)-4-((S)-2-Chloro-4-hexahydro-pyrrolo[1,2-a]pyrazin-2-yl-benzenesulfonyl)-1-(1-trifluoromethyl-cyclopropanecarbonyl)-pyrrolidine-2-carboxylic acid (1-cyano-cyclopropyl)-amide], for which the IC50 in assay [1] was 0.17 nM; in assay [2], 1180 nM.
With `Cc1cc(N2C[C@H](S(=O)(=O)c3ccccc3C(F)(F)F)C[C@H]2C(=O)NC2(C#N)CC2)n(C)n1` [Example 300, (2S,4R)-1-(2,5-Dimethyl-2H-pyrazol-3-yl)-4-(2-trifluoromethyl-benzenesulfonyl)-pyrrolidine-2-carboxylic acid (1-cyano-cyclopropyl)-amide], the figures for the half-maximal inhibitory concentration (IC50) in assay [1] and in assay [2] were 0.885 nM and 50700 nM, respectively.
In the case of `N#CC1(NC(=O)[C@@H]2C[C@@H](S(=O)(=O)c3ccc(N4CCn5cnnc5C4)cc3Cl)CN2C(=O)C2(C(F)(F)F)CC2)CC1` [Example 301, (2S,4R)-4-[2-Chloro-4-(5,6-dihydro-8H-[1,2,4]triazolo[4,3-a]pyrazin-7-yl)-benzenesulfonyl]-1-(1-trifluoromethyl-cyclopropanecarbonyl)-pyrrolidine-2-carboxylic acid (1-cyano-cyclopropyl)-amide], the half-inhibitory concentration (IC50) was 0.12 nM in assay [1] and 1540 nM in assay [2].
On to `N#CC1(NC(=O)[C@@H]2C[C@@H](S(=O)(=O)c3ccc(OCC(F)(F)F)cc3Cl)CN2C(=O)C2(c3ccc(Cl)cc3)CCCC2)CC1` [Example 302, (2S,4R)-1-[1-(4-Chloro-phenyl)-cyclopentanecarbonyl]-4-[2-chloro-4-(2,2,2-trifluoro-ethoxy)-benzenesulfonyl]-pyrrolidine-2-carboxylic acid (1-cyano-cyclopropyl)-amide], for which the half-inhibitory concentration (IC50) in assay [1] turned out to be 0.03 nM; in assay [2], 575 nM.
For `N#CC1(NC(=O)[C@@H]2C[C@@H](S(=O)(=O)c3ccc(OCC(F)(F)F)cc3Cl)CN2C(=O)C2(c3ccccc3)CCCCC2)CC1` [Example 303, (2S,4R)-4-[2-Chloro-4-(2,2,2-trifluoro-ethoxy)-benzenesulfonyl]-1-(1-phenyl-cyclohexanecarbonyl)-pyrrolidine-2-carboxylic acid (1-cyano-cyclopropyl)-amide], in that order: 0.03 nM and 1480 nM.
On to `Cc1ccc(C2(C(=O)N3C[C@H](S(=O)(=O)c4ccc(OCC(F)(F)F)cc4Cl)C[C@H]3C(=O)NC3(C#N)CC3)CC2)cc1` [Example 304, (2S,4R)-4-[2-Chloro-4-(2,2,2-trifluoro-ethoxy)-benzenesulfonyl]-1-(1-p-tolyl-cyclopropanecarbonyl)-pyrrolidine-2-carboxylic acid (1-cyano-cyclopropyl)-amide], for which the IC50 is 0.445 nM in assay [1] and 805 nM in assay [2].
For `Cc1cc(N2C[C@H](S(=O)(=O)c3ccc(OCC(F)(F)F)cc3C(F)(F)F)C[C@H]2C(=O)NC2(C#N)CC2)n(-c2ccc(C(F)(F)F)cc2)n1` [Example 306, (2S,4R)-1-[5-Methyl-2-(4-trifluoromethyl-phenyl)-2H-pyrazol-3-yl]-4-[4-(2,2,2-trifluoro-ethoxy)-2-trifluoromethyl-benzenesulfonyl]-pyrrolidine-2-carboxylic acid (1-cyano-cyclopropyl)-amide], in that order: 0.555 nM and 64500 nM.
On the same counts, the results for `Cc1cc(N2C[C@H](S(=O)(=O)c3ccccc3C(F)(F)F)C[C@H]2C(=O)NC2(C#N)CC2)n(C2CCOCC2)n1` [Example 307, (2S,4R)-1-[5-Methyl-2-(tetrahydro-pyran-4-yl)-2H-pyrazol-3-yl]-4-(2-trifluoromethyl-benzenesulfonyl)-pyrrolidine-2-carboxylic acid (1-cyano-cyclopropyl)-amide] are 0.205 nM and 52100 nM.
For `N#CC1(NC(=O)[C@@H]2C[C@@H](S(=O)(=O)c3ccc(OCC(F)(F)F)cc3Cl)CN2C(=O)C2(c3ccc(C(F)(F)F)cc3)CC2)CC1` [Example 310, (2S,4R)-4-[2-Chloro-4-(2,2,2-trifluoro-ethoxy)-benzenesulfonyl]-1-[1-(4-trifluoromethyl-phenyl)-cyclopropanecarbonyl]-pyrrolidine-2-carboxylic acid (1-cyano-cyclopropyl)-amide], in that order: 0.26 nM and 220 nM.
For the molecule `N#CC1(NC(=O)[C@@H]2C[C@@H](S(=O)(=O)c3ccc(OCC(F)(F)F)cc3Cl)CN2C(=O)C2(c3cccc(C(F)(F)F)c3)CC2)CC1` [Example 311, (2S,4R)-4-[2-Chloro-4-(2,2,2-trifluoro-ethoxy)-benzenesulfonyl]-1-[1-(3-trifluoromethyl-phenyl)-cyclopropanecarbonyl]-pyrrolidine-2-carboxylic acid (1-cyano-cyclopropyl)-amide], the IC50 in assay [1] is 0.155 nM; in assay [2] it was 745 nM.
For `N#CC1(NC(=O)[C@@H]2C[C@@H](S(=O)(=O)c3ccccc3Cl)CN2S(=O)(=O)c2ccc3ccccc3c2)CC1` [Example 313, (2S,4R)-4-(2-Chloro-benzenesulfonyl)-1-(naphthalene-2-sulfonyl)-pyrrolidine-2-carboxylic Acid (1-cyano-cyclopropyl)-amide], the half-maximal inhibitory concentration (IC50) came to 0.46 nM in assay [1] and 1390 nM in assay [2].
